Results on four molecules are retold here after patent publication US5559096A, “Pharmaceutical compositions against gastric disorders” (Applied Microbiology, Inc., priority 1991, dated 1996).

Positions of bridges follow the written chain, without caps; N, C: chain ends. Non-standard residues stand in square brackets, D forms with d. Primed or numbered codes have the meaning given here. No end group written: not given here. Dhb′ = not defined here; Abu = CC[C@H](N)C(=O)O; Dha = C=C(N)C(=O)O

Experiment [1] has as its system Helicobacter pylori. In words: Kill time assay: effect of citrate on antimicrobial activity (microbe survival). To be noted: Citrate 10 mM; for Mean Counts CFU/ml 1 min: 1 min after inoculation; for Mean Counts CFU/ml 5 min: 5 min after inoculation; for Mean Counts CFU/ml 30 min: 30 min after inoculation. The format is cell-based. The method, then:
A kill time assay was carried out to determine the effect of citrate on antimicrobial activity. Microbe survival was assessed after treatment with bacteriocin alone and bacteriocin plus citrate. The effect of citrate alone was also measured. Survival was measured at 1,5 and 30 minutes after inoculation. Activity is expressed as the mean number of counts of colony forming units (CFU) per ml.

A further experiment has as its system H.pylori NCTC 11916. In words: MIC by spiral plater, H.pylori NCTC 11916. The format is cell-based, Helicobacter pylori. To be noted: H.pylori NCTC 11916, human strain. The method, then:
(§1) The Minimum Inhibitory Concentration (MIC) of bacteriocin antimicrobial agents against a human strains of H.pylori (H.pylori NCTC 11916 and NCTC 11637) were assessed using a spiral plater and automatic agar plate pourer, according to the method of Wallace A. S. and Corkill J. E. (J. Microbial. Methods, 10, 303-310, 1989). MIC values were calculated according to the equation for the Archimedes spiral.

The test system of the next experiment is H.pylori NCTC 11637. Briefly: MIC by spiral plater, H.pylori NCTC 11637. The format is cell-based, Helicobacter pylori. Conditions: H.pylori NCTC 11637, human strain. The method, then:
as §1

The test system of experiment [2] is Helicobacter pylori. Briefly: Kill time at 4 times the average MIC. The format is cell-based. Conditions: time taken to reduce microbe levels to <200 viable organisms; drug concentration 4 times the average MIC. The method, then: Kill time was calculated as the time taken to reduce microbe levels to <200 viable organisms using a drug concentration equal to 4 times the average MIC value for the test compound.

The mark [3] stands for this setting: Initial Inoculum 8.92 × 10^4, Ambicin N 300 ppm.

Consider `O=C(O)CC(O)(CC(=O)O)C(=O)O` [Citrate], for which, in the experiment with Helicobacter pylori [1] (Initial Inoculum 2.39 × 10^5), the “Mean Counts CFU/ml 1 min” value is reported as 1.59 × 10^4 CFU/ml, the “Mean Counts CFU/ml 5 min” value is 1.42 × 10^4 CFU/ml and the “Mean Counts CFU/ml 30 min” value is listed as 1.95 × 10^4 CFU/ml. In the experiment with Helicobacter pylori [1] (setting [3]), the “Mean Counts CFU/ml 1 min” value is given as 7.98 × 10^4 CFU/ml, the “Mean Counts CFU/ml 5 min” value is listed as 8.64 × 10^4 CFU/ml and the “Mean Counts CFU/ml 30 min” value was 6.92 × 10^4 CFU/ml.

`CC(C)C[C@@H]1NC(=O)[C@H](CCCN)NC(=O)[C@H](C(C)C)NC(=O)[C@H](Cc2ccc(O)cc2)N[C@@H](CCC(=O)O)C(=O)N[C@@H](CC(N)=O)C(=O)[C@@H](Cc2ccccc2)NC(=O)[C@H](Cc2ccccc2)NC(=O)[C@@H]2CCCN2C(=O)[C@@H](Cc2ccccc2)NC1=O` [Tyrothricin]: in the experiment on H.pylori NCTC 11916, the “MIC Value NCTC 11916” value is 1.0 to 4.0 µg/mL. For the same molecule, in the experiment with H.pylori NCTC 11637, the “MIC Value NCTC 11637” value fell in the range of 1.0 to 5.0 µg/mL. Besides, in the experiment with Helicobacter pylori [2], the “Kill Time” value is given as less than 1. In the experiment with Helicobacter pylori [1] (Initial Inoculum 2.39 × 10^5), the “Mean Counts CFU/ml 1 min” value is listed as 2.55 × 10^4 CFU/ml, the “Mean Counts CFU/ml 5 min” value is 1.77 × 10^4 CFU/ml and the “Mean Counts CFU/ml 30 min” value is 1.78 × 10^4 CFU/ml.

For the molecule “Ambicin N: purified form of nisin made available by Applied Microbiology Inc. under the trade name AMBICIN N (I[Dhb′]AI[Dha]LC[Abu]PGCK[Abu]GALMGCNMK[Abu]A[Abu]CHCSIHV[Dha]K; thioether 8-11, 13-19, 23-26, 25-28, 3-7; UniProt P13068 24-57, looked up)”, in the experiment on H.pylori NCTC 11916, the “MIC Value NCTC 11916” value is 50 to 300 µg/mL. Moreover, in the experiment with H.pylori NCTC 11637, the “MIC Value NCTC 11637” value was 50 to 300 µg/mL. Further, in the experiment with Helicobacter pylori [2], the “Kill Time” value is on record as more than 30. In addition, in the experiment on Helicobacter pylori [1] (setting [3]), the “Mean Counts CFU/ml 1 min” value was 6.31 × 10^4 CFU/ml, the “Mean Counts CFU/ml 5 min” value is 5.71 × 10^4 CFU/ml and the “Mean Counts CFU/ml 30 min” value is 4.72 × 10^4 CFU/ml.

For the molecule Gramicidin, the “MIC Value NCTC 11916” value against H.pylori NCTC 11916 fell in the range of 0.5 to 3.0 µg/mL. In the experiment on H.pylori NCTC 11637, the “MIC Value NCTC 11637” value is 1.0 to 3.5 µg/mL. For the same molecule, the “Kill Time” value in the experiment with Helicobacter pylori [2] was more than 30. In addition, in the experiment with Helicobacter pylori [1] (Initial Inoculum 2.39 × 10^5), the “Mean Counts CFU/ml 1 min” value is 7.69 × 10^3 CFU/ml, the “Mean Counts CFU/ml 5 min” value is reported as 1.44 × 10^4 CFU/ml and the “Mean Counts CFU/ml 30 min” value is given as 1.35 × 10^4 CFU/ml.
